# Reference: patent US12391737B2, “Soluble NPY2 receptor agonists” (Boehringer Ingelheim International GmbH, priority 2020, dated 2025)
# Key:
# [1] = Solubility determination; conditions: for Sol6: pH 6; for Sol7: pH 7
# Summary of the method: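 Sample: TFA-salt peptide at 10 mg/ml target in 0.1 M Na diphosphate, pH 6.4 or 7.0, shaken 2 h RT, filtered, diluted to 1 mg/ml.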
# [2] = target: T1, Human Neuropeptide Y2 Receptor (Homo sapiens, UniProt P49146); assay: Radioligand binding competition assay (RLB); conditions: Table 3, 125I-PYY(1-36) competition; read-out: Ki
# T1 construct: purchased CHEMICON HTS066M
# T1 sequence (P49146 1-381): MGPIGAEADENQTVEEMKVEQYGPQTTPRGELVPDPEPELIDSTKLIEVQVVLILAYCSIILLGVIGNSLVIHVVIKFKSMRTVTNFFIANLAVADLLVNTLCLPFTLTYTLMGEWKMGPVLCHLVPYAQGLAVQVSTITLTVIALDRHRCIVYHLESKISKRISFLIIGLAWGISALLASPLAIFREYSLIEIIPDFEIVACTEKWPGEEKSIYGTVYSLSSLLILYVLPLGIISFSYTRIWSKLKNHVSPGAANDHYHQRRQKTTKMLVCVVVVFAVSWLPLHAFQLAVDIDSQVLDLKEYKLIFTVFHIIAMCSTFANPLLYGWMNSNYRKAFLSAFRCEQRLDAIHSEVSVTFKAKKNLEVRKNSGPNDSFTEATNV
# Summary of the method: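 IC50 values come from sigmoidal dose-response fits of scintillation counts after peptides competed for radioligand binding at receptor membranes (0.5 μg protein/well). Incubation ran 2 h at room temperature in HEPES buffer, pH 7.4, with Mg2+, Ca2+ and 0.2% ovalbumin.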
SMILES,Sol6 [1] [mg/mL],Sol7 [1] [mg/mL],Ki [2] [nM]
"CC[C@H](C)[C@H](NC(=O)[C@H](CCC(=O)O)NC(=O)[C@H](CCC(=O)O)NC(=O)[C@@H]1CCCN1C(=O)[C@H](CO)NC(=O)[C@H](C)NC(=O)[C@H](CC(=O)O)NC(=O)[C@H](CCC(=O)O)NC(=O)[C@H](CCC(=O)O)NC(=O)[C@@H]1CCCN1C(=O)[C@H](CCCCNC(=O)CCCCCNC(=O)CC[C@H](NC(=O)CCCCCCCCCCCCCCCCC(=O)O)C(=O)O)NC(=O)[C@H](CCC(=O)O)NC(=O)[C@@H]1CCCN1C(=O)[C@H](C)NC(=O)CC(C)C)C(=O)N[C@@H](CCC(N)=O)C(=O)N[C@@H](CCCNC(=N)N)C(=O)N[C@@H](Cc1ccc(O)cc1)C(=O)N[C@@H](Cc1ccc(O)cc1)C(=O)N[C@H](C(=O)N[C@@H](CCC(N)=O)C(=O)N[C@@H](CC(C)C)C(=O)N[C@@H](CCCNC(=N)N)C(=O)N[C@@H](Cc1c[nH]cn1)C(=O)N[C@@H](Cc1ccc(O)cc1)C(=O)N[C@@H](Cc1ccc(O)cc1)C(=O)N[C@@H](CC(N)=O)C(=O)N[C@@H](Cc1c[nH]c2ccccc12)C(=O)N[C@@H](CC(C)C)C(=O)N[C@H](C(=O)N[C@@H](CCCNC(=N)N)C(=O)N[C@@H](CCC(N)=O)C(=O)N[C@@H](CCCNC(=N)N)C(=O)N[C@@H](Cc1ccc(O)cc1)C(N)=O)[C@@H](C)O)C(C)C [Compound 93, N{alpha-4}-(3-methylbutanoyl)-N{epsilon-7}-(6-[(4S)-4-carboxy-4-(17-carboxyheptadecanamido)butanamido]hexanoyl)-[4A,7K,9E,17I,18Q,22V,23Q,28Y,30W,31L]-hPYY(4-36)]",9.4,9.7,1.71
"CC(C)CC(=O)N[C@@H](C)C(=O)N1CCC[C@H]1C(=O)N[C@@H](CCC(=O)O)C(=O)N[C@@H](CCCCNC(=O)CCCCCNC(=O)CC[C@H](NC(=O)CCCCCCCCCCCCCCCCC(=O)O)C(=O)O)C(=O)N1CCC[C@H]1C(=O)N[C@@H](CCC(=O)O)C(=O)N[C@@H](CCC(=O)O)C(=O)N[C@@H](C)C(=O)N[C@@H](C)C(=O)N[C@@H](CO)C(=O)N1CCC[C@H]1C(=O)N[C@@H](CCC(=O)O)C(=O)N[C@@H](CCC(=O)O)C(=O)N[C@@H](CC(C)C)C(=O)N[C@@H](CCC(N)=O)C(=O)N[C@@H](CCCNC(=N)N)C(=O)N[C@@H](Cc1ccc(O)cc1)C(=O)N[C@@H](Cc1ccc(O)cc1)C(=O)N[C@H](C(=O)N[C@@H](C)C(=O)N[C@@H](CC(C)C)C(=O)N[C@@H](CCCNC(=N)N)C(=O)N[C@@H](Cc1c[nH]cn1)C(=O)N[C@@H](Cc1ccc(O)cc1)C(=O)N[C@@H](Cc1ccc(O)cc1)C(=O)N[C@@H](CC(N)=O)C(=O)N[C@@H](Cc1c[nH]c2ccccc12)C(=O)N[C@@H](CC(C)C)C(=O)N[C@H](C(=O)N[C@@H](CCCNC(=N)N)C(=O)N[C@@H](CCC(N)=O)C(=O)N[C@@H](CCCNC(=N)N)C(=O)N[C@@H](Cc1ccc(O)cc1)C(N)=O)[C@@H](C)O)C(C)C [Compound 73, N{alpha-4}-(3-methylbutanoyl)-N{epsilon-7}-(6-[(4S)-4-carboxy-4-(17-carboxyheptadecanamido)butanamido]hexanoyl)-[4A,7K,9E,11A,18Q,22V,23A,28Y,30W,31L]-hPYY(4-36)]",8.6,8.2,2.16
"CC[C@H](C)[C@H](NC(=O)[C@H](Cc1ccc(O)cc1)NC(=O)[C@H](Cc1ccc(O)cc1)NC(=O)[C@H](CCCNC(=N)N)NC(=O)[C@H](CCC(N)=O)NC(=O)[C@H](CC(C)C)NC(=O)[C@H](CCC(=O)O)NC(=O)[C@H](CCC(=O)O)NC(=O)[C@@H]1CCCN1C(=O)[C@@H](NC(=O)[C@H](C)NC(=O)[C@H](CC(=O)O)NC(=O)[C@H](CCC(=O)O)NC(=O)[C@H](CCC(=O)O)NC(=O)[C@@H]1CCCN1C(=O)[C@H](CCCCNC(=O)CCCCCNC(=O)CC[C@H](NC(=O)CCCCCCCCCCCCCCCCC(=O)O)C(=O)O)NC(=O)[C@H](C)NC(=O)[C@@H]1CCCN1C(=O)[C@H](C)NC(=O)CC(C)C)[C@@H](C)O)C(=O)N[C@@H](CO)C(=O)N[C@@H](CC(C)C)C(=O)N[C@@H](CCCNC(=N)N)C(=O)N[C@@H](Cc1c[nH]cn1)C(=O)N[C@@H](Cc1ccc(O)cc1)C(=O)N[C@@H](Cc1ccc(O)cc1)C(=O)N[C@@H](CC(N)=O)C(=O)N[C@@H](Cc1c[nH]c2ccccc12)C(=O)N[C@@H](CC(C)C)C(=O)N[C@H](C(=O)N[C@@H](CCCNC(=N)N)C(=O)N[C@@H](CCC(N)=O)C(=O)N[C@@H](CCCNC(=N)N)C(=O)N[C@@H](Cc1ccc(O)cc1)C(N)=O)[C@@H](C)O [Compound 190, N{alpha-4}-(3-methylbutanoyl)-N{epsilon-7}-(6-[(4S)-4-carboxy-4-(17-carboxyheptadecanamido)butanamido]hexanoyl)-[4A,6A,7K,9E,13T,18Q,22I,28Y,30W,31L]-hPYY(4-36)]",8.4,8.4,1.95

# The next lines start with the values.
Sol6 [1] [mg/mL],Sol7 [1] [mg/mL],Ki [2] [nM],SMILES
8.2,9.7,1.68,"CC(C)CC(=O)N[C@@H](C)C(=O)N1CCC[C@H]1C(=O)N[C@@H](CCC(=O)O)C(=O)N[C@@H](CCCCNC(=O)CCCCCNC(=O)CC[C@H](NC(=O)CCCCCCCCCCCCCCCCC(=O)O)C(=O)O)C(=O)N1CCC[C@H]1C(=O)N[C@@H](CCC(=O)O)C(=O)N[C@@H](CCC(=O)O)C(=O)N[C@@H](CC(=O)O)C(=O)N[C@@H](CO)C(=O)N[C@@H](CO)C(=O)N1CCC[C@H]1C(=O)N[C@@H](CCC(=O)O)C(=O)N[C@@H](CCC(=O)O)C(=O)N[C@@H](CC(C)C)C(=O)N[C@@H](CCC(N)=O)C(=O)N[C@@H](CCCNC(=N)N)C(=O)N[C@@H](Cc1ccc(O)cc1)C(=O)N[C@@H](Cc1ccc(O)cc1)C(=O)N[C@H](C(=O)N[C@@H](C)C(=O)N[C@@H](CC(C)C)C(=O)N[C@@H](CCCNC(=N)N)C(=O)N[C@@H](Cc1c[nH]cn1)C(=O)N[C@@H](Cc1ccc(O)cc1)C(=O)N[C@@H](Cc1ccc(O)cc1)C(=O)N[C@@H](CC(N)=O)C(=O)N[C@@H](Cc1c[nH]c2ccccc12)C(=O)N[C@@H](CC(C)C)C(=O)N[C@H](C(=O)N[C@@H](CCCNC(=N)N)C(=O)N[C@@H](CCC(N)=O)C(=O)N[C@@H](CCCNC(=N)N)C(=O)N[C@@H](Cc1ccc(O)cc1)C(N)=O)[C@@H](C)O)C(C)C [Compound 151, N{alpha-4}-(3-methylbutanoyl)-N{epsilon-7}-(6-[(4S)-4-carboxy-4-(17-carboxyheptadecanamido)butanamido]hexanoyl)-[4A,7K,9E,12S,18Q,22V,23A,28Y,30W,31L]-hPYY(4-36)]"
10.0,10.0,12.4,"CC(C)CC(=O)N[C@@H](C)C(=O)N1CCC[C@H]1C(=O)N[C@@H](CCC(=O)O)C(=O)N[C@@H](CCCCNC(=O)CCCCCNC(=O)CC[C@H](NC(=O)CCCCCCCCCCCCCCCCC(=O)O)C(=O)O)C(=O)N1CCC[C@H]1C(=O)N[C@@H](CCC(=O)O)C(=O)N[C@@H](CCC(=O)O)C(=O)N[C@@H](CC(=O)O)C(=O)N[C@@H](C)C(=O)N[C@H](C(=O)N1CCC[C@H]1C(=O)N[C@@H](CCC(=O)O)C(=O)N[C@@H](CCC(=O)O)C(=O)N[C@@H](CC(C)C)C(=O)N[C@@H](CCC(N)=O)C(=O)N[C@@H](CCC(=O)O)C(=O)N[C@@H](Cc1ccc(O)cc1)C(=O)N[C@@H](Cc1ccc(O)cc1)C(=O)N[C@H](C(=O)N[C@@H](CO)C(=O)N[C@@H](CC(C)C)C(=O)N[C@@H](CCCNC(=N)N)C(=O)N[C@@H](Cc1c[nH]cn1)C(=O)N[C@@H](Cc1ccc(O)cc1)C(=O)N[C@@H](Cc1ccc(O)cc1)C(=O)N[C@@H](CC(N)=O)C(=O)N[C@@H](Cc1c[nH]c2ccccc12)C(=O)N[C@@H](CC(C)C)C(=O)N[C@H](C(=O)N[C@@H](CCCNC(=N)N)C(=O)N[C@@H](CCC(N)=O)C(=O)N[C@@H](CCCNC(=N)N)C(=O)N[C@@H](Cc1ccc(O)cc1)C(N)=O)[C@@H](C)O)C(C)C)[C@@H](C)O [Compound 38, N{alpha-4}-(3-methylbutanoyl)-N{epsilon-7}-(6-[(4S)-4-carboxy-4-(17-carboxyheptadecanamido)butanamido]hexanoyl)[4A,7K,9E,13T,18Q,19E,22V,28Y,30W,31L]-hPYY(4-36)]"
10.0,10.0,2.8,"CC(C)CC(=O)N[C@@H](C)C(=O)N1CCC[C@H]1C(=O)N[C@@H](CCC(=O)O)C(=O)N[C@@H](CCCCNC(=O)CCCCCNC(=O)CC[C@H](NC(=O)CCCCCCCCCCCCCCCCC(=O)O)C(=O)O)C(=O)N1CCC[C@H]1C(=O)N[C@@H](CCC(=O)O)C(=O)N[C@@H](CCC(=O)O)C(=O)N[C@@H](CC(=O)O)C(=O)N[C@@H](C)C(=O)N[C@H](C(=O)N1CCC[C@H]1C(=O)N[C@@H](CCC(=O)O)C(=O)N[C@@H](CCC(=O)O)C(=O)N[C@@H](CCC(N)=O)C(=O)N[C@@H](CCC(N)=O)C(=O)N[C@@H](CCCNC(=N)N)C(=O)N[C@@H](Cc1ccc(O)cc1)C(=O)N[C@@H](Cc1ccc(O)cc1)C(=O)N[C@H](C(=O)N[C@@H](CO)C(=O)N[C@@H](CC(C)C)C(=O)N[C@@H](CCCNC(=N)N)C(=O)N[C@@H](Cc1c[nH]cn1)C(=O)N[C@@H](Cc1ccc(O)cc1)C(=O)N[C@@H](Cc1ccc(O)cc1)C(=O)N[C@@H](CC(N)=O)C(=O)N[C@@H](Cc1c[nH]c2ccccc12)C(=O)N[C@@H](CC(C)C)C(=O)N[C@H](C(=O)N[C@@H](CCCNC(=N)N)C(=O)N[C@@H](CCC(N)=O)C(=O)N[C@@H](CCCNC(=N)N)C(=O)N[C@@H](Cc1ccc(O)cc1)C(N)=O)[C@@H](C)O)C(C)C)[C@@H](C)O [Compound 134, N{alpha-4}-(3-methylbutanoyl)-N{epsilon-7}-(6-[(4S)-4-carboxy-4-(17-carboxyheptadecanamido)butanamido]hexanoyl)-[4A,7K,9E,13T,17Q,18Q,22V,28Y,30W,31L]-hPYY(4-36)]"
